# Experimental data taken from patent US20090252672A1, “NASAL DELIVERY OF THERAPEUTIC AGENTS USING TIGHT JUNCTION AGONISTS” (priority 2006, published 2009).
# Read-outs that look alike come from different tables or passages of the source.
# How the values were obtained:
# [1] = target: T1, protease activated receptor-2 (PAR-2) receptor (Mus musculus, UniProt P55086); settings: intracolonic infusion of a 5 μg dose; cited from earlier work
# T1 construct: Intracolonic infusion of a 5 μg dose of the PAR-2 agonist, SLIGRL
# T1 sequence (P55086 26-399): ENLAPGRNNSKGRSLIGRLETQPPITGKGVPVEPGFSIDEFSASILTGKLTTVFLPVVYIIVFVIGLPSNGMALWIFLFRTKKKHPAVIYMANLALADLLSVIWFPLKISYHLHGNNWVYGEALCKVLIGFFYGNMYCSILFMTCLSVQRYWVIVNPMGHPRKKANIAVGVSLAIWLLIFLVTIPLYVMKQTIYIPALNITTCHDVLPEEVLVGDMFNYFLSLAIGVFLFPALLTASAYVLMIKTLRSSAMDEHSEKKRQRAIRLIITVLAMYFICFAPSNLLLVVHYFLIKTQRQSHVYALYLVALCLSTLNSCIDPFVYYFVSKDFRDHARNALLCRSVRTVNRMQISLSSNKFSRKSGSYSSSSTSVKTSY
# [2] = Intranasal administration of [14C] PEG4000 or [14C] inulin with/without AT1002, plasma concentration; assay type: in vivo, Sprague-Dawley rats; settings: inulin with AT1002 10 mg/kg, p<0.05
# From the text: Male Sprague-Dawley rats cannulated in the jugular vein were randomly assigned to receive radiolabelled paracellular markers, [^14C] PEG4000 or [^14C] inulin, with/without AT1002, for each intranasal study.
# [3] = Intra-nasal administration of salmon calcitonin (sCT) with or without AT1002, plasma sCT by LC-MS; assay type: in vivo, Sprague-Dawley rats; settings: for Tmax: 15 mg/kg
# Method: Jugular cannulated Sprague-Dawley rats randomly received formulations of salmon calcitonin. The formulations administered intra-nasally to rats were dextrose solution of sCT (15 mg/kg) with or without various doses of AT1002 (2, 5, and 10 mg/kg). Doses were then slowly administered intra-nasally with a volume dose of 400 μl kg rat. Blood samples were drawn via the jugular cannula at each time point, and were deproteinized by the addition of acetonitrile. The concentration of sCT in the plasma was determined by LC-MS.
# [4] = Intranasal administration of [3H]-AZT or [3H]-saquinavir with AT1002, uptake into blood plasma
# Method: Blood samples (250 μl) were drawn into heparinized syringes at 10 or 15 min into polypropylene tubes, centrifuged (13,000 rpm for 10 min) immediately and plasma was obtained. Scintillation cocktail was added and samples were analyzed for radioactivity by Beckman Coulter LS 6500 multi-purpose Scintillation counter.
# In a volume of 20 μl, 120 μCi/kg of [^3H]-AZT was administered to FVB mice of 20-25 g each. Other FVB mice received the same amount of AZT administered in the presence of AT1002(2 mg/kg). Blood samples were taken at 10 or 15 minutes.
# [hu 3H]-Saquinavir (120 μCi/kg) was administered in a 20 μl volume intranasally to FVB mice in the absence or presence of AT1002 (5 mg/kg).
# in vitro = settings: human, Caco-2
# Method: Caco-2 cells, a human colon adenocarcinoma cell line, were grown as monolayers for 21 days in Dulbecco's Modified Eagle's medium (1X) containing 10% fetal bovine serum, 1% non-essential amino acid solution, 1% penicillin-streptomycin and 2% glutamine at 37° C. in an atmosphere of 5% CO2 and 90% relative humidity. Caco-2 cells from passage numbers of 51 to 52 were seeded on permeable polycarbonate inserts (1 cm^2, 0.4 μm pore size) in 12 Transwell plates at a density of 80,000 cells/cm^2. The inserts were fed with media every other day until they were used for experiments 21 days after the initial seeding. The integrity of the cell monolayers was evaluated by measuring the transepithelial electrical resistance (TEER) values before the study using a Millicell®-ERS meter (Millipore Corp., Bedford, Mass.) with chopstick electrodes. […] The cell monolayers were washed twice with PBS prior to the transport experiments. After the wash, the plates were incubated for 30 min at 37° C., and the integrity of the cell monolayers was evaluated by measurement of TEER. The cell inserts were used in transport experiments when the TEER values reached >300 Ωcm^2.
# The insert was moved to a well containing fresh PBS every 10 min for 40 min.
# Papp was calculated according to the following equation: […]
# The percent enhancement ratio, ER(%), for the Papp was calculated from the formula, […]
# Caco-2 cell monolayers = settings: ZOT 0.22 to 0.89×10^−10 mol/ml, across Caco-2 cell monolayers; cited from earlier work
# [5] = sCT 15 mg/kg intra-nasal with 10 mg/kg of AT1002, p<0.05
compound,measurement,setting,value
SLIGRL,increase in the paracellular permeability of [51Cr]-EDTA,[1],2 fold
"H-FCIGRL-OH [AT1002, H-FCIGRL-OH]","inulin AUC0-360min, increase over control",[2],292%
same,"inulin Cmax, increase over control",[2],315%
same,increase of plasma concentration of sCT vs sCT control,"[3]; at 20 min, sCT 15 mg/kg intra-nasal with 10 mg/kg of AT1002, p<0.05",1.99 fold
same,increase in sCT AUC0-90min to sCT control,[3]; [5],1.66 fold
same,increase in sCT Cmax to sCT control,[3]; [5],1.67 fold
same,increase of AZT levels in plasma,"[4]; [3H]-AZT 120 μCi/kg intranasal, AT1002 2 mg/kg co-administered, blood at 10 or 15 min, vs AZT alone, p<0.05",about 33%
same,increase of saquinavir levels in plasma,"[4]; [3H]-saquinavir 120 μCi/kg intranasal, in presence of AT1002 5 mg/kg vs absence",about 51%
OC[C@@H](O)[C@@H](O)[C@H](O)[C@H](O)CO [Mannitol],Papp,in vitro,0.686 ± 0.057 ×10⁻⁶ cm/s
ZOT: 44.8 kDa protein (399 amino acids) of Vibrio cholerae that reversibly opens tight junctions,enhanced transport of agents of varying molecular weights or low bioavailability,Caco-2 cell monolayers,up to 30 fold
"CC(C)C[C@H](NC(=O)[C@H](CCCCN)NC(=O)CNC(=O)[C@H](CC(C)C)NC(=O)[C@@H](NC(=O)[C@@H]1CSSC[C@H](N)C(=O)N[C@@H](CO)C(=O)N[C@@H](CC(N)=O)C(=O)N[C@@H](CC(C)C)C(=O)N[C@@H](CO)C(=O)N[C@@H]([C@@H](C)O)C(=O)N1)C(C)C)C(=O)N[C@@H](CO)C(=O)N[C@@H](CCC(N)=O)C(=O)N[C@@H](CCC(=O)O)C(=O)N[C@@H](CC(C)C)C(=O)N[C@@H](Cc1c[nH]cn1)C(=O)N[C@@H](CCCCN)C(=O)N[C@@H](CC(C)C)C(=O)N[C@@H](CCC(N)=O)C(=O)N[C@H](C(=O)N[C@@H](Cc1ccc(O)cc1)C(=O)N1CCC[C@H]1C(=O)N[C@@H](CCCNC(=N)N)C(=O)N[C@H](C(=O)N[C@@H](CC(N)=O)C(=O)N[C@H](C(=O)NCC(=O)N[C@@H](CO)C(=O)NCC(=O)N[C@H](C(=O)N1CCC[C@H]1C(N)=O)[C@@H](C)O)[C@@H](C)O)[C@@H](C)O)[C@@H](C)O [sCT only, Salmon calcitonin]",Tmax,"[3]; Sprague-Dawley, rat, plasma, inhaled or intranasal, sCT 15 mg/kg intra-nasal alone (control), mean ± SEM, read-out: sCT Tmax (converted)",32.5 min
same,Tmax,"[3]; Sprague-Dawley, rat, plasma, inhaled or intranasal, sCT 15 mg/kg intra-nasal, sCT only (FIG. 7), read-out: Tmax of average plasma concentration profile of sCT (converted)",30 min
same,Cmax,"[3]; Sprague-Dawley, rat, plasma, inhaled or intranasal, sCT 15 mg/kg intra-nasal alone (control), mean ± SEM",1230 ± 250 ng/mL
same,AUC(0-t),"[3]; Sprague-Dawley, rat, plasma, inhaled or intranasal, sCT 15 mg/kg intra-nasal alone (control), mean ± SEM, n=3-5, read-out: sCT AUC0-90 min (converted)",997 ng·h/mL
